Measurements: patent US20220324835A1 (Nurix Therapeutics, Inc., priority 2018, published 2022)

Legend:
T-cell [1] = assay: IL-2 secretion from T-cells stimulated with anti-CD3 antibody alone (Biological Example 2); assay type: cell-based, human; conditions: Homo sapiens, T-cell; 1 μM Cbl-b inhibitor; fold change over baseline (anti-CD3/anti-CD28 stimulated T-cells without inhibitor); read-out: IL-2 secretion Anti-CD3 stimulation
T-cell [2] = assay: CD25 cell surface staining on T-cells stimulated with anti-CD3 antibody alone (Biological Example 2); assay type: cell-based, human; conditions: Homo sapiens, T-cell; 1 μM Cbl-b inhibitor; fold change over baseline (anti-CD3/anti-CD28 stimulated T-cells without inhibitor); read-out: CD25 staining Anti-CD3 stimulation
Cbl-b [3] = biological target: T1, Cbl-b (Homo sapiens, UniProt Q13191); assay: Cbl-b inhibition assay (Cbl-b activity assay, FRET, Biological Example 1; 100 mM NaCl, 60 nM Src kinase); assay type: biochemical; conditions: upper bound stated in text lists; read-out: IC50 values in the Cbl-b inhibition assay of Biological Example 1
T1 sequence (Q13191 36-427): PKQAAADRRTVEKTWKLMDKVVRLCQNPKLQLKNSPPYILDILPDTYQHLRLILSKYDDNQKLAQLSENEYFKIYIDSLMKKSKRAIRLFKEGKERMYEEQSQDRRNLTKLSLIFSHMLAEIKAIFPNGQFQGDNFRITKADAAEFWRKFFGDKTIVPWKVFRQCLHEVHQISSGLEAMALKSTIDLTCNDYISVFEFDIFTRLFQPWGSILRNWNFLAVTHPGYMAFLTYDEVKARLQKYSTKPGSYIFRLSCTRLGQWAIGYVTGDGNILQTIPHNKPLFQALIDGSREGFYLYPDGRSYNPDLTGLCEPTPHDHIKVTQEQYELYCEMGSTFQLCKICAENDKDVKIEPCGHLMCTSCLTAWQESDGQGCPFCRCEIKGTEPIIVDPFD
Procedure, shortened: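 Steps: Src kinase phosphorylates N-terminal biotinylated Avi-tagged Cbl-b; phosphorylated Cbl-b binds Bodipy-fluorescein ubiquitin-loaded UbcH5B; streptavidin-terbium on Cbl-b sits close to the fluorescein label, producing FRET. Inhibitors block UbcH5B-Ub binding.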

T-cell [4] = assay: IL-2 secretion from T-cells co-stimulated with anti-CD3 and anti-CD28 antibody (Biological Example 2); assay type: cell-based, human; conditions: Homo sapiens, T-cell, fold change over baseline (anti-CD3/anti-CD28 stimulated T-cells without inhibitor), read-out: IL-2 secretion Anti-CD3/Anti-CD28 stimulation; for fold induction at 0.3 µM: 0.3 μM Cbl-b inhibitor; for fold induction at 1 µM: 1 μM Cbl-b inhibitor
Procedure, shortened: (§1)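 No assay protocol given; T-cells stimulated with anti-CD3 alone or anti-CD3 plus anti-CD28, with or without Cbl-b inhibitor. Activation read as IL-2 secretion or CD25 surface staining, expressed as fold over baseline from uninhibited cells […].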

T-cell [5] = assay: CD25 cell surface staining on T-cells co-stimulated with anti-CD3 and anti-CD28 antibody (Biological Example 2); assay type: cell-based, human; conditions: Homo sapiens, T-cell, fold change over baseline (anti-CD3/anti-CD28 stimulated T-cells without inhibitor), read-out: CD25 staining Anti-CD3/Anti-CD28 stimulation; for fold induction at 0.3 µM: 0.3 μM Cbl-b inhibitor; for fold induction at 1 µM: 1 μM Cbl-b inhibitor
Procedure, shortened: as §1

Cbl-b [6] = biological target: T1, Cbl-b; assay: Cbl-b activity assay (Cbl-b inhibition assay), TR-FRET of Cbl-b interaction with UbcH5B-Ub; assay type: biochemical; conditions: assay buffer with 100 mM NaCl, 60 nM Src kinase; read-out: Cbl-b activity IC50
Procedure, shortened: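 TR-FRET readout of Cbl-b binding to Bodipy-fluorescein N-terminally labeled Ub conjugated to UbcH5B C85K, measured with compound present. After compound incubation, 60 nM Src kinase with 1 mM ATP and 5 mM MgCl2 (final) was added for 1.5 h, then a further 1 h incubation; asterisked values used 50 mM NaCl buffer and 30 nM Src.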

| Compound | fold induction at 1 µM (T-cell [1]) | fold induction at 1 µM (T-cell [2]) | IC50 (Cbl-b [3]) [nM] | fold induction at 0.3 µM (T-cell [4]) | fold induction at 1 µM (T-cell [4]) | fold induction at 0.3 µM (T-cell [5]) | fold induction at 1 µM (T-cell [5]) | IC50 (Cbl-b [6]) [nM] |
| --- | --- | --- | --- | --- | --- | --- | --- | --- |
| CN1C[C@@H]2C[C@H]1CN2c1cc2c(c(C(F)(F)F)c1)CN(c1cccc([C@@](C)(F)C(F)(F)c3nncn3C)c1)C2=O [Example 563, 6-((1S,4S)-5-Methyl-2,5-diazabicyclo[2.2.1]heptan-2-yl)-2-(3-((R)-1,1,2-trifluoro-1-(4-methyl-4H-1,2,4-triazol-3-yl)propan-2-yl)phenyl)-4-(trifluoromethyl)-isoindolin-1-one] | 0.051 to 0.1 | 0.801 to 1 | ≤ 100 | 1.01 to 2.5 | 2.51 to 5 | 1.01 to 1.3 | 1.31 to 1.5 | < 100 |
| CN1C2CCC1CN(c1cc3c(c(C(F)(F)F)c1)CN(c1cccc([C@@](C)(F)C(F)(F)c4nncn4C)c1)C3=O)C2 [Example 564, 6-(8-Methyl-3,8-diazabicyclo[3.2.1]octan-3-yl)-2-(3-((R)-1,1,2-trifluoro-1-(4-methyl-4H-1,2,4-triazol-3-yl)propan-2-yl)phenyl)-4-(trifluoromethyl)isoindolin-1-one] | 0.101 to 0.15 | 0.801 to 1 | ≤ 100 | 1.01 to 2.5 | 2.51 to 5 | 1.01 to 1.3 | 1.31 to 1.5 | < 100 |
| CN1CC2CCC1CN2c1cc2c(c(C(F)(F)F)c1)CN(c1cccc([C@@](C)(F)C(F)(F)c3nncn3C)c1)C2=O (stereo partly drawn) [Example 565, 6-(5-Methyl-2,5-diazabicyclo[2.2.2]octan-2-yl)-2-(3-((R)-1,1,2-trifluoro-1-(4-methyl-4H-1,2,4-triazol-3-yl)propan-2-yl)phenyl)-4-(trifluoromethyl)isoindolin-1-one] | 0.101 to 0.15 | > 1 | ≤ 100 | 1.01 to 2.5 | 2.51 to 5 | 1.31 to 1.5 | 1.31 to 1.5 | < 100 |
| CN1CC2CC(C1)N2c1cc2c(c(C(F)(F)F)c1)CN(c1cccc([C@@](C)(F)C(F)(F)c3nncn3C)c1)C2=O [Example 566, 6-(3-Methyl-3,6-diazabicyclo[3.1.1]heptan-6-yl)-2-(3-((R)-1,1,2-trifluoro-1-(4-methyl-4H-1,2,4-triazol-3-yl)propan-2-yl)phenyl)-4-(trifluoromethyl)isoindolin-1-one] | 0.101 to 0.15 | > 1 | ≤ 100 | 5 to 7.5 | > 7.5 | 1.31 to 1.5 | 1.51 to 1.75 | < 100 |
| Cn1cnnc1CC1(c2cccc(N3Cc4c(cc(N5CCOCC5)cc4C(F)(F)F)C3=O)c2)COC1 [Example 567, 2-(3-(3-((4-Methyl-4H-1,2,4-triazol-3-yl)methyl)oxetan-3-yl)phenyl)-6-morpholino-4-(trifluoromethyl)isoindolin-1-one] | 0.051 to 0.1 | 0.801 to 1 | ≤ 100 | 1.01 to 2.5 | 2.51 to 5 | 1.01 to 1.3 | 1.01 to 1.3 | < 100 |
| Cn1cnnc1CC1(c2cccc(N3Cc4c(cc(C5CC5)nc4C4CC4)C3=O)c2)COC1 [Example 568, 4,6-Dicyclopropyl-2-(3-(3-((4-methyl-4H-1,2,4-triazol-3-yl)methyl)oxetan-3-yl)phenyl)-2,3-dihydro-1H-pyrrolo[3,4-c]pyridin-1-one] | 0.101 to 0.15 | 0.801 to 1 | ≤ 100 | 1.01 to 2.5 | 1.01 to 2.5 | 1.01 to 1.3 | 1.01 to 1.3 | < 100 |
| CN1C[C@H]2C[C@@H]1CN2c1cc2c(c(C(F)(F)F)c1)CN(c1cccc(C3(Cc4nncn4C)COC3)c1)C2=O [Example 569, 2-(3-(3-((4-Methyl-4H-1,2,4-triazol-3-yl)methyl)oxetan-3-yl)phenyl)-6-((1R,4R)-5-methyl-2,5-diazabicyclo[2.2.1]heptan-2-yl)-4-(trifluoromethyl)isoindolin-1-one] | > 0.201 | > 1 | ≤ 100 | > 7.5 | > 7.5 | 1.31 to 1.5 | 1.31 to 1.5 | < 100 |
| C[C@@H](c1cc2c(c(C(F)(F)F)c1)CN(c1cccc(C3(C(F)(F)c4nncn4C)COC3)c1)C2=O)N1CC[C@H](F)C1 [Example 570, 2-(3-(3-(Difluoro(4-methyl-4H-1,2,4-triazol-3-yl)methyl)oxetan-3-yl)phenyl)-6-((S)-1-((S)-3-fluoropyrrolidin-1-yl)ethyl)-4-(trifluoromethyl)isoindolin-1-one] | > 0.201 | > 1 | ≤ 100 | 2.51 to 5 | > 7.5 | 1.31 to 1.5 | 1.51 to 1.75 | < 100 |
| CN1CC2CC(C1)N2c1cc(C(=O)Nc2cccc(C3(Cc4nncn4C)COC3)c2)nc(C2CC2)n1 [Example 572, 2-Cyclopropyl-N-(3-(3-((4-methyl-4H-1,2,4-triazol-3-yl)methyl)oxetan-3-yl)phenyl)-6-(3-methyl-3,6-diazabicyclo[3.1.1]heptan-6-yl)pyrimidine-4-carboxamide] | > 0.201 | > 1 | ≤ 100 | > 7.5 | > 7.5 | 1.31 to 1.5 | 1.31 to 1.5 | < 100 |
| CN1C[C@H]2CC[C@@H](C1)N2c1cc(C(=O)Nc2cccc(C3(Cc4nncn4C)COC3)c2)nc(C2CC2)n1 [Example 573, 2-Cyclopropyl-N-(3-(3-((4-methyl-4H-1,2,4-triazol-3-yl)methyl)oxetan-3-yl)phenyl)-6-((1R,5S)-3-methyl-3,8-diazabicyclo[3.2.1]octan-8-yl)pyrimidine-4-carboxamide] | > 0.201 | > 1 | ≤ 100 | 5 to 7.5 | > 7.5 | 1.31 to 1.5 | 1.51 to 1.75 | < 100 |
| Cn1cnnc1CC1(c2cccc(NC(=O)c3cc(CN4CC[C@H](F)C4)nc(C4CC4)n3)c2)COC1 [Example 574, (S)-2-Cyclopropyl-6-((3-fluoropyrrolidin-1-yl)methyl)-N-(3-(3-((4-methyl-4H-1,2,4-triazol-3-yl)methyl)oxetan-3-yl)phenyl)pyrimidine-4-carboxamide] | > 0.201 | > 1 | ≤ 100 | > 7.5 | > 7.5 | 1.51 to 1.75 | 1.51 to 1.75 | < 100 |
| Cn1cnnc1CC1(c2cccc(N3Cc4c(ccc(F)c4C4CC4)C3=O)c2)COC1 [Example 577, 4-Cyclopropyl-5-fluoro-2-(3-(3-((4-methyl-4H-1,2,4-triazol-3-yl)methyl)oxetan-3-yl)phenyl)isoindolin-1-one] | 0.051 to 0.1 | 0.601 to 0.8 | ≤ 300 | 1.01 to 2.5 | 1.01 to 2.5 | 1.01 to 1.3 | 1.01 to 1.3 | 100 to 300 |
| Cn1cnnc1CC1(c2cccc(N3Cc4c(cc(CN5CC[C@H](F)C5)nc4C4CC4)C3=O)c2)COC1 [Example 578, (S)-4-cyclopropyl-6-((3-fluoropyrrolidin-1-yl)methyl)-2-(3-(3-((4-methyl-4H-1,2,4-triazol-3-yl)methyl)oxetan-3-yl)phenyl)-2,3-dihydro-1H-pyrrolo[3,4-c]pyridin-1-one] | 0.051 to 0.1 | 0.801 to 1 | ≤ 100 | 2.51 to 5 | 5 to 7.5 | 1.01 to 1.3 | 1.01 to 1.3 | < 100 |
| Cn1cnnc1CC1(c2cccc(N3Cc4c(cc(CN5CCCC5)nc4C4CC4)C3=O)c2)COC1 [Example 579, 4-Cyclopropyl-2-(3-(3-((4-methyl-4H-1,2,4-triazol-3-yl)methyl)oxetan-3-yl)phenyl)-6-(pyrrolidin-1-ylmethyl)-2,3-dihydro-1H-pyrrolo[3,4-c]pyridin-1-one] | < 0.05 | < 0.6 | ≤ 100 | 1.01 to 2.5 | 2.51 to 5 | 1.01 to 1.3 | 1.01 to 1.3 | < 100 |
